In brackets after ≈: the same amount, converted by molar mass. Blank lines part the entries; values can stand above or below the compound they belong to.
Experiments:
[1] = Water solubility of compound at pH 7 incubated for 2 hrs by HPLC analysis; format: physicochemical
[2] = Antiproliferative activity against mouse BaF3/TRP-Met cells assessed as reduction in cell growth incubated for 72 hrs by SRB assay; settings: BaF3, 72 h
NIH3T3 [3] = assay: Antiproliferative activity against mouse NIH3T3/TRP-Met cells assessed as reduction in cell growth incubated for 72 hrs by SRB assay; settings: NIH3T3, 72 h
NIH3T3 [4] = assay: Antiproliferative activity against mouse NIH3T3 cells assessed as reduction in cell growth incubated for 72 hrs by SRB assay; settings: NIH3T3, 72 h
SNU1 = assay: Antiproliferative activity against human SNU1 cells assessed as reduction in cell viability incubated for 72 hrs by SRB assay; settings: SNU1, 72 h
NCI-H661 = assay: Antiproliferative activity against human NCI-H661 cells assessed as reduction in cell viability incubated for 72 hrs by SRB assay; settings: NCI-H661, 72 h
HepG2 = assay: Antiproliferative activity against human HepG2 cells assessed as reduction in cell viability incubated for 72 hrs by MTT assay; format: functional, cell-based; settings: HepG2, 72 h
[5] = target: T1, Hepatocyte growth factor receptor (Homo sapiens, UniProt P08581); assay: Inhibition of c-MET (unknown origin) using poly (Glu,Tyr) 4:1 as substrate incubated for 30 mins by ADP-Glo reagent based analysis
T1 sequence (P08581 whole entry): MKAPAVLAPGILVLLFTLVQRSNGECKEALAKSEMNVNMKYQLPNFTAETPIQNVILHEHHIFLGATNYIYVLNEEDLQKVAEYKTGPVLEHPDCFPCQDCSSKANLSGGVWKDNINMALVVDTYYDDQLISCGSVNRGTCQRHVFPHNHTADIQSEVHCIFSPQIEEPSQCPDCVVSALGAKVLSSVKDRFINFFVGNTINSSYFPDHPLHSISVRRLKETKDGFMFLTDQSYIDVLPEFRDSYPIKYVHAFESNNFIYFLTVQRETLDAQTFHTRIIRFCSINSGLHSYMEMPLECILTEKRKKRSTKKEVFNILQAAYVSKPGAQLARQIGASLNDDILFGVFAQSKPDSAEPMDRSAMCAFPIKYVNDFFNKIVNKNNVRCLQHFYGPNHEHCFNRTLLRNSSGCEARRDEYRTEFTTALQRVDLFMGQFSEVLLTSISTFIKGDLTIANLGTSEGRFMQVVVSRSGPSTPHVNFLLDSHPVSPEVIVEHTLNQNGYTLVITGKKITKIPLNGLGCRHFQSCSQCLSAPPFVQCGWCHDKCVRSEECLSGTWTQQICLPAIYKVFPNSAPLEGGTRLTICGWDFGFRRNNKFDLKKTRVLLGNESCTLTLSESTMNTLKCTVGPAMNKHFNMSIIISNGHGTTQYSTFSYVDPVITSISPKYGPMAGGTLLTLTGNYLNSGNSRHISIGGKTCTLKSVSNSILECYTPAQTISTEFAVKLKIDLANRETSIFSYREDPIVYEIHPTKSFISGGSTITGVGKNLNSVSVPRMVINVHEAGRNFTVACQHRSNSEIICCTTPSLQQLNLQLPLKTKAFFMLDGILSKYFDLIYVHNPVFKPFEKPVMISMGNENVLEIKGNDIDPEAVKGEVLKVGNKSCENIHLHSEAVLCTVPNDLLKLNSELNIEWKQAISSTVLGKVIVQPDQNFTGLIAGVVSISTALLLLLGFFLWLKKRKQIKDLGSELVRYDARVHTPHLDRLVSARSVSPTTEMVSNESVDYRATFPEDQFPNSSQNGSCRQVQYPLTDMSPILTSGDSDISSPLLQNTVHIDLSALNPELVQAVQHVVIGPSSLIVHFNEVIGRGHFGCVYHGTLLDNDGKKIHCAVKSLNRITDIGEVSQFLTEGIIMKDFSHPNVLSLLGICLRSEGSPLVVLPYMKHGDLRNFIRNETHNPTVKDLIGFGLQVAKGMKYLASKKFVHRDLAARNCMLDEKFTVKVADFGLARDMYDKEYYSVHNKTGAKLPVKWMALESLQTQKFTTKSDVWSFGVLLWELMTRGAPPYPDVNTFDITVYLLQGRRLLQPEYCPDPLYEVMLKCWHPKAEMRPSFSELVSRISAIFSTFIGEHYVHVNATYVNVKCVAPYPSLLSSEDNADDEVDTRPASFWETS

[6] = target: T1, Hepatocyte growth factor receptor; assay: Inhibition of c-Met (unknown origin)
[7] = target: T1, Hepatocyte growth factor receptor; assay: Inhibition of c-MET (unknown origin) incubated for 30 mins by ELISA method
[8] = Antiproliferative activity against mouse BaF3/[…] cells assessed as reduction in cell viability incubated for 72 hrs by Cell-titer glo reagent based assay; format: functional; settings: BaF3, 72 h
[9] = target: Epidermal growth factor receptor (Homo sapiens, UniProt P00533); assay: Inhibition of EGFR (unknown origin)
[10] = target: ALK tyrosine kinase receptor (Homo sapiens, UniProt Q9UM73); assay: Inhibition of ALK (unknown origin)
Chain of ALK tyrosine kinase receptor (Q9UM73 whole entry): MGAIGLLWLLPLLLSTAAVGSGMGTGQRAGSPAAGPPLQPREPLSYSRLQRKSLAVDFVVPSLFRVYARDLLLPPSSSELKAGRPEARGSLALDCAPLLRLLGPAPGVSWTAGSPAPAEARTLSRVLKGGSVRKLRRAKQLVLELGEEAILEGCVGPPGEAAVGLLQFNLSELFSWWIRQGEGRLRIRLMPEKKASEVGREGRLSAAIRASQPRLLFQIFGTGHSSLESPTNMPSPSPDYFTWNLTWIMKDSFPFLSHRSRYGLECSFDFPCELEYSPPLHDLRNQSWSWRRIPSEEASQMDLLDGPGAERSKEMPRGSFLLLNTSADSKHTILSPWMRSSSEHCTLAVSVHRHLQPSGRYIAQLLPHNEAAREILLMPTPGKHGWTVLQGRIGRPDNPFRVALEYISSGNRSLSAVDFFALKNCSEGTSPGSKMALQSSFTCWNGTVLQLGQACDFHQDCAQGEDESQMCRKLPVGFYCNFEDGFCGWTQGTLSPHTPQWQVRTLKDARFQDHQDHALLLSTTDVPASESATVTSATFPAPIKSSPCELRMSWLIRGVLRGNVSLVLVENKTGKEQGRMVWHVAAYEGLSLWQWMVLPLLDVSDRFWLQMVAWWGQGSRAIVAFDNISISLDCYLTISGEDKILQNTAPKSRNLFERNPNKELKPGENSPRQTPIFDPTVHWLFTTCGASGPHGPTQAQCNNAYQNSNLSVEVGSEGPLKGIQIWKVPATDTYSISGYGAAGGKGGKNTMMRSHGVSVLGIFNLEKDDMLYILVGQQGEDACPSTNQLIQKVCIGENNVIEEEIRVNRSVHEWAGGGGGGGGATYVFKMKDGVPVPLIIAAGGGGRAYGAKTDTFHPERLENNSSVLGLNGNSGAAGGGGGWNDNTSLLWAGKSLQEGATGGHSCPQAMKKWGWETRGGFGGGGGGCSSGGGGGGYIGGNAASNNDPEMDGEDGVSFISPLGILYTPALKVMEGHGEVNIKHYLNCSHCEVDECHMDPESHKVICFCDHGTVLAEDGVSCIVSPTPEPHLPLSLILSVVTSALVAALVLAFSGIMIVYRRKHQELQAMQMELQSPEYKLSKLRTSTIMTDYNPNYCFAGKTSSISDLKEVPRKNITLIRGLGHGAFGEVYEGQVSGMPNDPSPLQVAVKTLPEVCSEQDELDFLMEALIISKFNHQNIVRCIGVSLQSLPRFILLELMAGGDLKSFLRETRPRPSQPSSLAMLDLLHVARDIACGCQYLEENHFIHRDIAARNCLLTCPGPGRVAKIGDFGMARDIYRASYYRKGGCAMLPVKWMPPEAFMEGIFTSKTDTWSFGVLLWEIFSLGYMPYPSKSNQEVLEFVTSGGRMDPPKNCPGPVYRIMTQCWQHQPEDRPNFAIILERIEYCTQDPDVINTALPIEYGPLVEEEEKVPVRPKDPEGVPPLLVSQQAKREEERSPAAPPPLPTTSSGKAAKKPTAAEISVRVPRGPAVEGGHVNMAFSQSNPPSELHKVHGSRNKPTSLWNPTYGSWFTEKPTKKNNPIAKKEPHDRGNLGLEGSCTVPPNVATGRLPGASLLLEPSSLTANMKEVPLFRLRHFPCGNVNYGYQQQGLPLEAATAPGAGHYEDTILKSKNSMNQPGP

[11] = target: Proto-oncogene tyrosine-protein kinase receptor Ret (Homo sapiens, UniProt P07949); assay: Inhibition of RET (unknown origin)
Chain of Proto-oncogene tyrosine-protein kinase receptor Ret (P07949 whole entry): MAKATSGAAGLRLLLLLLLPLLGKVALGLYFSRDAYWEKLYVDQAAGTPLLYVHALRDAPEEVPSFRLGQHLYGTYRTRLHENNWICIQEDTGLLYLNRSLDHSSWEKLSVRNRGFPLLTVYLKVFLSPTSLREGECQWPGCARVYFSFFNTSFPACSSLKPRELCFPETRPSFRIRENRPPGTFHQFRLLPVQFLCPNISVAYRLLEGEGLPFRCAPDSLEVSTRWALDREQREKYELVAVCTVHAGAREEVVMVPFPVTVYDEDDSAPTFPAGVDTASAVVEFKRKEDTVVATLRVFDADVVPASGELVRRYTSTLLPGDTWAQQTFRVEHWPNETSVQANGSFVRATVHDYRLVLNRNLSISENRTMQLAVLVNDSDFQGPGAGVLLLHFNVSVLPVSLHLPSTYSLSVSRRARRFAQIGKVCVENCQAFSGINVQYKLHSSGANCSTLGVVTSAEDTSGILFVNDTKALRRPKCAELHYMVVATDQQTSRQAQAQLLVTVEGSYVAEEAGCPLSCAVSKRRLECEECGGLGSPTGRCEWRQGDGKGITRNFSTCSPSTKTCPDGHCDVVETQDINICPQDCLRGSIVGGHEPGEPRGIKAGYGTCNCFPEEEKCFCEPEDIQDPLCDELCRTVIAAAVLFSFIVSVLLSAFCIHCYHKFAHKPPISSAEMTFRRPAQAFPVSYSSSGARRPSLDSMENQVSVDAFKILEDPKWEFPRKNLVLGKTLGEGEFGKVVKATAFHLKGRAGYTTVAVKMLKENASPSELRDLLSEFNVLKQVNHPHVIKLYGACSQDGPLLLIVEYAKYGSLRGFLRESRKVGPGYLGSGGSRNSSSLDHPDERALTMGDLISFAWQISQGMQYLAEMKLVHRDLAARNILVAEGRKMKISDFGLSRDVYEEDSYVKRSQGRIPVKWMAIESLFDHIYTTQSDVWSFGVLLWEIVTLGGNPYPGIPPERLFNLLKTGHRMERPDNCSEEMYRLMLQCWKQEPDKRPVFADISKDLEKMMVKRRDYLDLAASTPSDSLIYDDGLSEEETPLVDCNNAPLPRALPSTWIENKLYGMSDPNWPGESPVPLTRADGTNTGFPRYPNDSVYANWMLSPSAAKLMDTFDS

CYP3A4 [12] = target: T2, CYP3A4 (Homo sapiens, UniProt P08684); assay: Inhibition of CYP3A4 (unknown origin); format: ADME
T2 sequence (P08684 whole entry): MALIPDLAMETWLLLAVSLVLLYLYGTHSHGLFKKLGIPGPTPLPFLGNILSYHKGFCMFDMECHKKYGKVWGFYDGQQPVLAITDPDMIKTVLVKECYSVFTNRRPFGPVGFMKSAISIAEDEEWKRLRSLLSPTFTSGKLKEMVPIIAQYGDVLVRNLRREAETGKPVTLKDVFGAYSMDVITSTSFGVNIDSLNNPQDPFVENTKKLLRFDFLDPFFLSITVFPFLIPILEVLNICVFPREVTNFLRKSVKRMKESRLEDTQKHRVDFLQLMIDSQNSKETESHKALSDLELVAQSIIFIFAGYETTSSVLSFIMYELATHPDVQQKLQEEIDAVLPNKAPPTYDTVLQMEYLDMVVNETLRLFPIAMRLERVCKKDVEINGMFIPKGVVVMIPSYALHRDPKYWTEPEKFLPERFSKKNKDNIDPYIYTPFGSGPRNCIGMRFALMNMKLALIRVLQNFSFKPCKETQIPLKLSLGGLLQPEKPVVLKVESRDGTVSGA

CYP3A4 [13] = target: T2, CYP3A4; assay: Inhibition of CYP3A4 in human liver microsomes; format: ADME, Microsome
Cytochrome P450 3A4 = Cytochrome P450 3A4 (Homo sapiens, UniProt P08684); assay: Inhibition of CYP3A4 in human liver microsome assessed as fold change; format: ADME; settings: microsomes
Chain of Cytochrome P450 3A4 (P08684 whole entry): as above

MKN-45 = assay: Antiproliferative activity against human MKN-45 cells assessed as reduction in cell viability incubated for 72 hrs by Cell-titer glo luminescent assay; format: functional, cell-based; settings: MKN-45, 72 h
EBC-1 = assay: Antiproliferative activity against human EBC-1 cells assessed as reduction in cell viability incubated for 72 hrs by Cell-titer glo luminescent assay; format: functional, cell-based; settings: EBC-1, 72 h

IC50 (SNU1): > 50 µM | IC50 (NCI-H661): > 50 µM
Compound: COc1ccc2c(OCc3nnc4ncc(-c5ccccc5)nn34)ccnc2c1
IC50 [2]: 23.7 nM | IC50 (NIH3T3 [3]): 79.5 nM | IC50 (NIH3T3 [4]): > 50 µM

IC50 (HepG2): 740 nM | IC50 [5]: 4.6 nM
Compound: Cc1ccc(-c2cnc3nnc(SCc4ccncc4)n3n2)cc1

IC50 (HepG2): 1020 nM | IC50 [5]: 5.6 nM
Compound: Cc1ccc(-c2cnc3nnc(SCc4cccnc4)n3n2)cc1

IC50 [6]: 4.4 nM
Compound: COc1ccc2c(OCc3nnc4ccc(-c5ccccc5)nn34)ccnc2c1 [AMG-208]

IC50 (CYP3A4 [12]): > 50 µM | IC50 (CYP3A4 [13]): > 50 µM | fold change (FC) (Cytochrome P450 3A4): > 1
Compound: COc1ccc2c(NCc3nnc4ccc(-c5ccccc5)nn34)ccnc2c1

fold change (FC) (Cytochrome P450 3A4): 0.64
Compound: COc1ccc2c(SCc3nnc4ccc(-c5ccccc5)nn34)ccnc2c1

IC50 (HepG2): 3060 nM | IC50 [5]: 52 nM | solubility at 2 h [1]: 203 µg/mL (≈ 636 µM)
Compound: Oc1ccc(-c2cnc3nnc(NCc4ccncc4)n3n2)cc1

Continued, compound first:

Compound: Oc1ccc(-c2cnc3nnc(SCc4ccncc4)n3n2)cc1
solubility at 2 h [1]: 3.6 µg/mL (≈ 10.7 µM)

Compound: Brc1ccc(-c2cnc3nnc(SCc4cccnc4)n3n2)cc1
IC50 (HepG2): 710 nM | IC50 [5]: 6.4 nM

Compound: Clc1ccc(Cl)c(-c2cn3cccc(COc4nnc5ccc(Cl)nn45)c3n2)c1
IC50 [7]: 53 nM | IC50 [8]: 253 nM | IC50 [9]: 14.2 µM | IC50 [10]: 11.3 µM | IC50 [11]: 12.2 µM

Compound: Clc1ccc(-c2cn3cccc(COc4nnc5ccc(Cl)nn45)c3n2)c(Cl)c1
IC50 [7]: 62 nM | IC50 [8]: 271 nM | IC50 [9]: 15.6 µM | IC50 [10]: 13.5 µM | IC50 [11]: 12.3 µM

Compound: Cc1[nH]c2ncc(-c3cnn(C4CCNCC4)c3)cc2c1C(C)c1c(Cl)ccc(F)c1Cl (centres undefined)
IC50 (MKN-45): 1.98 µM | IC50 (EBC-1): 2.38 µM

Compound: CC(c1c(Cl)ccc(F)c1Cl)c1c(Cl)[nH]c2ncc(-c3cnn(C4CCNCC4)c3)cc12 (centres undefined)
IC50 (MKN-45): 6.52 µM | IC50 (EBC-1): 9.21 µM
